Values joined by “and” are separate entries in the source; they are usually repeats but may differ in a detail not shown here. Identical values can stand only once. Inconclusive results and toxic doses are left out.
Tested on: P388 leukemia ip, CD2F1 mice, survival T/C
Assay: NCI In Vivo Anticancer Drug Screen. Data for tumor model P388 Leukemia (intraperitoneal) in CD2F1 (CDF1) mice
Details: endpoint: median survival time, higher = longer survival
Procedure, shortened: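 Mice carrying the transplanted tumor received test compound or vehicle. Survival was recorded in each group, and the value is the treated-group measurement divided by that of the vehicle-treated control group.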

[1] = dose: 100.0 mg/kg/injection, schedule: Q01DX009 (ip), vehicle: saline with Tween-80
[2] = dose: 200.0 mg/kg/injection, schedule: Q01DX009 (ip), vehicle: saline with Tween-80
[3] = dose: 100.0 mg/kg/injection, schedule: Q01DX001 (ip), vehicle: saline with Tween-80
[4] = dose: 200.0 mg/kg/injection, schedule: Q01DX001 (ip), vehicle: saline with Tween-80
[5] = dose: 50.0 mg/kg/injection, schedule: Q01DX009 (ip), vehicle: saline

`CC12C3=CC=C4C=CC=C(c5ccccc5C1=CC=C3)C42C` (stereo unspecified) was tested, and the T/C (dose: 50.0 mg/kg/injection, schedule: Q04DX002 (ip), vehicle: Klucel (hydroxypropylcellulose) (HPC)) was 100 % of control, the T/C (dose: 100.0 mg/kg/injection, schedule: Q04DX002 (ip), vehicle: Klucel (hydroxypropylcellulose) (HPC)) was 111 % of control and the T/C (dose: 200.0 mg/kg/injection, schedule: Q04DX002 (ip), vehicle: Klucel (hydroxypropylcellulose) (HPC)) was 107 % of control.
In the case of `CC1(C)OC2CC(=O)OCC23C1CC(=O)C1(C)C2=CC(=O)OC(c4ccoc4)C2(C)CCC13` (stereo unspecified), the T/C (dose: 0.5 mg/kg/injection, schedule: Q01DX009 (ip), vehicle: saline + alcohol) is reported as 106 % of control, the T/C (dose: 1.0 mg/kg/injection, schedule: Q01DX009 (ip), vehicle: saline + alcohol) is reported as 108 % of control and the T/C (dose: 2.0 mg/kg/injection, schedule: Q01DX009 (ip), vehicle: saline + alcohol) is reported as 101 % of control. The T/C (dose: 4.0 mg/kg/injection, schedule: Q01DX009 (ip), vehicle: saline + alcohol) was 105 % of control.
For `CC(=O)Nc1ccc2c(c1)Cc1ccccc1-2`, the T/C [1] was 100 % of control, the T/C [2] was 95 % of control and the T/C (dose: 400.0 mg/kg/injection, schedule: Q01DX009 (ip), vehicle: saline with Tween-80) was 95 % of control.
For `Oc1cc2c(cc1-c1cc3c(cc1O)OCO3)OCO2`, the T/C (dose: 25.0 mg/kg/injection, schedule: Q01DX005 (ip), vehicle: Klucel (hydroxypropylcellulose) (HPC)) was 100 % of control, the T/C (dose: 50.0 mg/kg/injection, schedule: Q01DX005 (ip), vehicle: Klucel (hydroxypropylcellulose) (HPC)) was 100 % of control and the T/C (dose: 100.0 mg/kg/injection, schedule: Q01DX005 (ip), vehicle: Klucel (hydroxypropylcellulose) (HPC)) was 105 % of control. For the same molecule, the T/C (dose: 200.0 mg/kg/injection, schedule: Q01DX005 (ip), vehicle: Klucel (hydroxypropylcellulose) (HPC)) was 100 % of control.
With `CCOC(=O)N(C)N(C)C(=O)OCC` the T/C (dose: 50.0 mg/kg/injection, schedule: Q01DX005 (ip), vehicle: saline) was 100 % of control, the T/C (dose: 100.0 mg/kg/injection, schedule: Q01DX005 (ip), vehicle: saline) was 100 % of control and the T/C (dose: 200.0 mg/kg/injection, schedule: Q01DX005 (ip), vehicle: saline) was 100 % of control.
In the case of `Cc1ccc2c(c1)nc(-c1ccccn1)n2CCc1ccncc1`, the T/C (dose: 50.0 mg/kg/injection, schedule: Q01DX001 (ip), vehicle: saline with Tween-80) is reported as 95 % of control, the T/C [3] is reported as 96 % of control and the T/C [4] is reported as 101 % of control.
In the case of `C1CC[N-]CC1.CC(=O)Nc1[c-]cccc1.CC(=O)O.[Pd+2]`, the T/C (dose: 25.0 mg/kg/injection, schedule: Q01DX005 (ip), vehicle: saline with Tween-80) is reported as 112 % of control and 95 % of control, the T/C (dose: 50.0 mg/kg/injection, schedule: Q01DX005 (ip), vehicle: saline with Tween-80) is reported as 107 % of control and 114 % of control and 119 % of control and the T/C (dose: 100.0 mg/kg/injection, schedule: Q01DX005 (ip), vehicle: saline with Tween-80) is reported as 111 % of control.
`O=C(c1ccc(F)cc1)C1CCN(CCCn2c(=O)[nH]c3ccccc32)CC1` was tested, and the T/C [5] was 100 % of control, the T/C (dose: 100.0 mg/kg/injection, schedule: Q01DX009 (ip), vehicle: saline) was 101 % of control and the T/C (dose: 200.0 mg/kg/injection, schedule: Q01DX009 (ip), vehicle: saline) was 100 % of control.
With `Nn1c(-c2ccc(Cl)c(Cl)c2)nc2ccccc2c1=O` the T/C (dose: 50.0 mg/kg/injection, schedule: Q01DX009 (ip), vehicle: saline with Tween-80) was 89 % of control, the T/C [1] was 99 % of control and the T/C [2] was 98 % of control.
With `O=NNc1cnccn1` the T/C (dose: 1.56 mg/kg/injection, schedule: Q01DX009 (ip), vehicle: water) was 100 % of control, the T/C (dose: 3.12 mg/kg/injection, schedule: Q01DX009 (ip), vehicle: water) was 109 % of control and 100 % of control and the T/C (dose: 6.25 mg/kg/injection, schedule: Q01DX009 (ip), vehicle: water) was 110 % of control and 112 % of control and 97 % of control. For the same molecule, the T/C (dose: 12.5 mg/kg/injection, schedule: Q01DX009 (ip), vehicle: water) was 116 % of control and 122 % of control, the T/C (dose: 25.0 mg/kg/injection, schedule: Q01DX009 (ip), vehicle: water) was 150 % of control and the T/C (dose: 25.3 mg/kg/injection, schedule: Q01DX009 (ip), vehicle: other) was 161 % of control. For the same molecule, the T/C (dose: 25.3 mg/kg/injection, schedule: Q01DX009 (ip), vehicle: water) was 170 % of control, the T/C (dose: 37.5 mg/kg/injection, schedule: Q01DX009 (ip), vehicle: water) was 224 % of control and 245 % of control and 271 % of control and the T/C (dose: 38.0 mg/kg/injection, schedule: Q01DX009 (ip), vehicle: other) was 225 % of control. For the same molecule, the T/C (dose: 50.0 mg/kg/injection, schedule: Q01DX009 (ip), vehicle: water) was 118 % of control [middle of 5 runs] and the T/C (dose: 57.0 mg/kg/injection, schedule: Q01DX009 (ip), vehicle: water) was 112 % of control.
`COc1cc2cnc(-c3ccccc3)cc2cc1OC` was tested, and the T/C (dose: 100.0 mg/kg/injection, schedule: Q04DX003 (ip), vehicle: suspension in saline) was 101 % of control, the T/C (dose: 200.0 mg/kg/injection, schedule: Q04DX003 (ip), vehicle: suspension in saline) was 93 % of control and the T/C (dose: 400.0 mg/kg/injection, schedule: Q04DX003 (ip), vehicle: suspension in saline) was 93 % of control.
`C=C(CO)C(=O)OC1CC(=C)C2CC(O)C(C)C2C2OC(=O)C(=C)C12` (stereo unspecified) was tested, and the T/C (dose: 0.75 mg/kg/injection, schedule: Q01DX009 (ip), vehicle: Klucel (hydroxypropylcellulose) (HPC)) was 100 % of control and 114 % of control, the T/C (dose: 1.5 mg/kg/injection, schedule: Q01DX009 (ip), vehicle: Klucel (hydroxypropylcellulose) (HPC)) was 104 % of control and 91 % of control and the T/C (dose: 3.0 mg/kg/injection, schedule: Q01DX009 (ip), vehicle: Klucel (hydroxypropylcellulose) (HPC)) was 98 % of control and 97 % of control. The T/C (dose: 6.0 mg/kg/injection, schedule: Q01DX009 (ip), vehicle: Klucel (hydroxypropylcellulose) (HPC)) was 102 % of control and 107 % of control and 112 % of control, the T/C (dose: 12.0 mg/kg/injection, schedule: Q01DX009 (ip), vehicle: Klucel (hydroxypropylcellulose) (HPC)) was 103 % of control and the T/C (dose: 24.0 mg/kg/injection, schedule: Q01DX009 (ip), vehicle: Klucel (hydroxypropylcellulose) (HPC)) was 98 % of control.
With `[O-][N+]12CCCCC1C1CC(C2)C2CCCC(c3ccccc3)N2C1` (stereo unspecified) the T/C (dose: 12.5 mg/kg/injection, schedule: Q01DX009 (ip), vehicle: Klucel (hydroxypropylcellulose) (HPC)) was 101 % of control and 105 % of control and 116 % of control and the T/C (dose: 25.0 mg/kg/injection, schedule: Q01DX009 (ip), vehicle: Klucel (hydroxypropylcellulose) (HPC)) was 103 % of control and 112 % of control and 114 % of control.
In the case of `CCc1c(CO)c(CO)c(-c2ccccc2)n1CCn1c(CC)c(CO)c(CO)c1-c1ccccc1`, the T/C [3] is reported as 96 % of control, the T/C [4] is reported as 88 % of control and the T/C (dose: 400.0 mg/kg/injection, schedule: Q01DX001 (ip), vehicle: saline with Tween-80) is reported as 96 % of control.
In the case of `c1ccc2c(NCC3CCN(c4c5ccccc5nc5ccccc45)CC3)c3ccccc3nc2c1`, the T/C (dose: 25.0 mg/kg/injection, schedule: Q04DX002 (ip), vehicle: saline with Tween-80) is reported as 118 % of control, the T/C (dose: 50.0 mg/kg/injection, schedule: Q04DX002 (ip), vehicle: saline with Tween-80) is reported as 117 % of control and the T/C (dose: 100.0 mg/kg/injection, schedule: Q04DX002 (ip), vehicle: saline with Tween-80) is reported as 111 % of control.
With `CC1CN(C(=O)Nc2ccc(Cl)c(Cl)c2)CC(C)O1` (stereo unspecified) the T/C (dose: 6.25 mg/kg/injection, schedule: Q01DX009 (ip), vehicle: saline) was 100 % of control, the T/C (dose: 12.5 mg/kg/injection, schedule: Q01DX009 (ip), vehicle: saline) was 98 % of control and the T/C (dose: 25.0 mg/kg/injection, schedule: Q01DX009 (ip), vehicle: saline) was 86 % of control. The T/C [2] was 100 % of control.
`Cc1cc(COCCN(C)C)on1` was tested, and the T/C (dose: 60.0 mg/kg/injection, schedule: Q01DX005 (ip), vehicle: saline with Tween-80) was 97 % of control and the T/C (dose: 120.0 mg/kg/injection, schedule: Q01DX005 (ip), vehicle: saline with Tween-80) was 104 % of control.
`NC(N)=NC(N)=Nc1ccc([As](=O)(O)O)c(O)c1` was tested, and the T/C (dose: 22.5 mg/kg/injection, schedule: Q01DX009 (ip), vehicle: saline) was 105 % of control, the T/C (dose: 25.0 mg/kg/injection, schedule: Q01DX009 (ip), vehicle: saline sonified) was 118 % of control and the T/C (dose: 33.0 mg/kg/injection, schedule: Q01DX009 (ip), vehicle: saline) was 104 % of control. For the same molecule, the T/C (dose: 45.0 mg/kg/injection, schedule: Q01DX009 (ip), vehicle: saline) was 104 % of control, the T/C (dose: 50.0 mg/kg/injection, schedule: Q01DX009 (ip), vehicle: saline sonified) was 118 % of control and the T/C [5] was 109 % of control. The T/C (dose: 75.0 mg/kg/injection, schedule: Q01DX009 (ip), vehicle: saline) was 122 % of control, the T/C (dose: 90.0 mg/kg/injection, schedule: Q01DX009 (ip), vehicle: saline) was 115 % of control and the T/C (dose: 180.0 mg/kg/injection, schedule: Q01DX009 (ip), vehicle: saline) was 117 % of control. The T/C (dose: 360.0 mg/kg/injection, schedule: Q01DX009 (ip), vehicle: saline) was 103 % of control.
`O=C1Nc2ccccc2/C1=N/N=C/c1ccc(Cl)cc1Cl` was tested, and the T/C (dose: 50.0 mg/kg/injection, schedule: Q01DX009 (ip), vehicle: Klucel (hydroxypropylcellulose) (HPC)) was 100 % of control, the T/C (dose: 100.0 mg/kg/injection, schedule: Q01DX009 (ip), vehicle: Klucel (hydroxypropylcellulose) (HPC)) was 88 % of control and 90 % of control and the T/C (dose: 200.0 mg/kg/injection, schedule: Q01DX009 (ip), vehicle: Klucel (hydroxypropylcellulose) (HPC)) was 100 % of control and 98 % of control.

Source: PubChem BioAssay AID330 (DTP/NCI, 2004)
